Measured values: paper PMC3826612 (Talanta, 2013)

Molecular target: acetylcholinesterase from Electrophorus electricus (eelAChE) immobilized on magnetic beads (Electrophorus electricus, UniProt O42275)
Assay: Ligand fishing assay using eelAChE-MB
Assay type: binding
Conditions: 100 nM reference compounds, individually and as a mixture

Chain of acetylcholinesterase from Electrophorus electricus (eelAChE) immobilized on magnetic beads (O42275 24-633): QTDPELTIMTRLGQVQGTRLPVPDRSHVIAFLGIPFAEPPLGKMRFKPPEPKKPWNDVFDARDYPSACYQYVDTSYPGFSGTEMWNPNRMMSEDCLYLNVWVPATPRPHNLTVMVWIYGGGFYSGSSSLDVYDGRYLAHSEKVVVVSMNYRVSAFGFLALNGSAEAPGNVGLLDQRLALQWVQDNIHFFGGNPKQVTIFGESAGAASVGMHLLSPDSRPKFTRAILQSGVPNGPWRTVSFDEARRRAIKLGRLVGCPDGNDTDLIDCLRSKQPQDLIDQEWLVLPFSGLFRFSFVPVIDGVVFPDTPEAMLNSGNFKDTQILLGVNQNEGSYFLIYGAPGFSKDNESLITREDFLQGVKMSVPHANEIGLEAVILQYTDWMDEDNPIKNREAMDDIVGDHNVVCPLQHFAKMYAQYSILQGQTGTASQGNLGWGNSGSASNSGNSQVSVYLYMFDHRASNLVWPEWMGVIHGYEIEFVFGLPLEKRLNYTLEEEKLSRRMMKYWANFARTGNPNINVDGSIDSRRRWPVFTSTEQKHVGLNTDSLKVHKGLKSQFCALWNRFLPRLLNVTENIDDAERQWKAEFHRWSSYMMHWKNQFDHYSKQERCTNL

Structure (SMILES) | Presence in supernatants S-1 (unbound) and S-2 (eluted)
CNC1(c2ccccc2Cl)CCCCC1=O (centres unmarked) [ketamine] | only present in S-1
CC(CCc1ccccc1)NCC(O)c1ccc(O)c(C(N)=O)c1 (centres unmarked) [labetalol] | only present in S-1
